Source: patent publication US20250129096A1, “ANNULATED 2-AMINO-3-CYANO THIOPHENES AND DERIVATIVES FOR THE TREATMENT OF CANCER” (Boehringer Ingelheim Int'l GmbH Corp., priority 2021, published 2025)
Values after ≈ are worked out from the molar mass of the structure shown. Like-named read-outs stand apart in the source and are kept apart here.

Columns and labels:
KRAS G12C Ba/F3 cells = KRAS G12C Ba/F3 cells (Homo sapiens, UniProt P01116, G12C, cells depend on it); assay: Ba/F3 proliferation assay, KRAS G12C; type: cell-based; settings: 72 h, AlamarBlue; read-out: KRAS G12C Ba/F3 IC50
Sequence of KRAS G12C Ba/F3 cells (P01116 whole entry G12C, canonical isoform): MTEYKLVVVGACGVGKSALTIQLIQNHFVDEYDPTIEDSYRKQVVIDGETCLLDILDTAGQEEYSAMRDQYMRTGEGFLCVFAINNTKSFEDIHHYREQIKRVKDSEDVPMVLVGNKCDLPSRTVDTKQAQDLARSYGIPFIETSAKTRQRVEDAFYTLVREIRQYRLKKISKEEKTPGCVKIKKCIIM
Protocol: (§1) To generate KRASG12-dependent Ba/F3 models, Ba/F3 cells are transduced with retroviruses containing vectors that harbor KRASG12 isoforms. Platinum-E cells (Cell Biolabs) are used for retrovirus packaging. Retrovirus is added to Ba/F3 cells. To ensure infection, 4 μg/mL polybrene is added and cells are spinfected. […] Cells with an infection efficiency of 10% to 20% are further cultivated and puromycin selection with 1 μg/mL is initiated. As a control, parental Ba/F3 cells are used to show selection status. Selection is considered successful when parental Ba/F3 cells cultures died. To evaluate the transforming potential of KRASG12 mutations, the growth medium is no longer supplemented with IL-3. Ba/F3 cells harboring the empty vector are used as a control. Approximately ten days before conducting the experiments, puromycin is left out. […] All treatments are performed in technical duplicates. […] AlamarBlue™(ThermoFisher), a viability stain, is added and fluorescence measured in the PerkinElmer Envision HTS Multilabel Reader. The raw data are imported into and analyzed with the Boehringer Ingelheim proprietary software MegaLab (curve fitting based on the program PRISM, GraphPad Inc.).

[1] = system: NCI-H2122 cells (NSCLC, G12C); assay: NCI-H2122 CTG proliferation assay (120 h); type: cell-based; settings: Homo sapiens, CellTiter-Glo
Protocol: The CTG assay is designed to measure quantitatively the proliferation of NCI-H2122 cells (ATCC CRL-5985), using the CellTiter Glow Assay Kit (Promega G7571). Cells are grown in RPMI medium (ATCC) supplemented with Fetal Calf Serum (Life Technologies, Gibco BRL, Cat. No. 10270-106). On “day 0” 200 NCI-H2122 cells are seeded in 60 μL RPMI ATCC+10% FCS+ Penstrep in a black 384-well plate, flat and clear bottom (Greiner, PNr. 781091). Cells are then incubated in the plates at 37° C. in a CO2 incubator overnight. On day 1, compounds (10 mM stock in DMSO) are added with the ECHO acoustic liquid handler system (Beckman Coulter), including DMSO controls. Plates are incubated for 120 h, and cell viability is measured using CellTiter-Glo luminescent cell viability reagent (Promega product code G7570). Viability (stated as percent of control) is defined as relative luminescence units RLU of each well divided by the RLU of cells in DMSO controls. IC50 values are determined from viability measurements by non-linear regression using a four-parameter model.

KRAS G12D Ba/F3 cells = KRAS G12D Ba/F3 cells (Homo sapiens, UniProt P01116, G12D, cells depend on it); assay: Ba/F3 proliferation assay, KRAS G12D; type: cell-based; settings: 72 h, AlamarBlue; read-out: KRAS G12D Ba/F3 IC50
Sequence of KRAS G12D Ba/F3 cells (P01116 whole entry G12D): as the sequence (P01116 whole entry G12C, canonical isoform) above, with C12D counted along it
Protocol: as §1

KRAS G12V Ba/F3 cells = KRAS G12V Ba/F3 cells (Homo sapiens, UniProt P01116, G12V, cells depend on it); assay: Ba/F3 proliferation assay, KRAS G12V; type: cell-based; settings: 72 h, AlamarBlue; read-out: KRAS G12V Ba/F3 IC50
Sequence of KRAS G12V Ba/F3 cells (P01116 whole entry G12V): as the sequence (P01116 whole entry G12C, canonical isoform) above, with C12V counted along it
Protocol: as §1

KRAS (G12C)::SOS1 = target: T1, KRAS (G12C)::SOS1 (Homo sapiens, UniProt P01116, C118S/C51S/C80L/G12C); assay: KRAS::SOS1 AlphaScreen binding assay, KRAS G12C
T1 construct: KRAS (G12C) 1-169, N-terminal 6His-tag for purification, cleaved off; 6His-tag (N, cleaved yes)
T1 sequence (P01116 1-169 isoform P01116-2 G12C/C51S/C80L/C118S): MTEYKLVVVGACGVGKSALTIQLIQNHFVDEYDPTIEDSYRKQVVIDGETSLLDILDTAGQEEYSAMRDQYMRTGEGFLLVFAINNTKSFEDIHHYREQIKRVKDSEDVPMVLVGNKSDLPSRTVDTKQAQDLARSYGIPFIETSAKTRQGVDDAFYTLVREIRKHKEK
Protocol: Low IC50 values in this assay setting are indicative of strong inhibition of protein-protein interaction between SOS1 and KRAS:
These assays measure the inhibitory effect of compounds on KRAS mutant protein-protein interactions using the Alpha Screen technology by Perkin Elmer.
For the chosen highest assay concentration of 100 μM, 150 nL of compound solution are transferred from a 10 mM DMSO compound stock solution. A series of eleven fivefold dilutions per compound are transferred to the assay plate, compound dilutions are tested in duplicates. DMSO are added as backfill to a total volume of 150 nL.
The assays run on a fully automated robotic system in a darkened room below 100 Lux. To 150 nl of compound dilution 10 μl of a mix including KRAS mutant protein, SOS1 (final assay concentrations see above) and GDP nucleotide (Sigma G7127; final assay concentration 10 μM) in assay buffer (1×PBS, 0.1% BSA, 0.05% Tween 20) are added into columns 1-24. After 30 minutes incubation time 5 μl of Alpha Screen bead mix in assay buffer are added into columns 1-23.
Plates are kept at room temperature in a darkened incubator. After an additional 60 minutes incubation time the signal is measured in a PerkinElmer Envision HTS Multilabel Reader using the AlphaScreen specs from PerkinElmer.
IC50 values are calculated and analyzed with Boehringer Ingelheim's MEGALAB IC50 application using a 4 parametric logistic model.

[2] = system: SAS cells (HNSCC, wt amplified); assay: SAS CTG proliferation assay (120 h); type: cell-based; settings: CellTiter-Glo
Protocol: SAS cells (JCRB0260) are dispensed into 384-well plates, flat and clear bottom (Greiner, PNr. 781091) at a density of 300 cells per well in 60 μL DMEM:F12 (Gibco 31330-038)+10% Fetal Calf Serum (HyClone, PNr.: SH30084.03) and incubated at 37° C. in a CO2 incubator overnight. The next day, compounds (10 mM stock in DMSO) are added with the ECHO acoustic liquid handler system (Beckman Coulter), including DMSO controls. Plates are incubated for 120 h, and cell viability is measured using CellTiter-Glo luminescent cell viability reagent (Promega product code G7570). Viability (stated as percent of control) is defined as relative luminescence units RLU of each well divided by the RLU of cells in DMSO controls. IC50 values are determined from viability measurements by non-linear regression using a four-parameter model.

[3] = Solubility measurement (DMSO solution precipitation method); type: physicochemical; settings: aqueous buffer, kinetic from dmso stock, ambient temperature
Protocol: The DMSO solution is diluted with an aqueous medium (McIlvaine buffer with pH=4.5 or 6.8) to a final concentration of 250 μM. After 24 h of shaking at ambient temperature a potentially formed precipitate is removed by filtration. The concentration of the test compound in the filtrate is determined by LC-UV methods by calibrating the signal to the signal of a reference solution with complete dissolution of the test compound in acetonitrile/water (1:1) with known concentration.

[4] = McIlvaine buffer pH 4.5, 24 h, read-out: solubility pH 4.5
[5] = McIlvaine buffer pH 6.8, 24 h, read-out: solubility pH 6.8

SMILES	GI50 (KRAS G12C Ba/F3 cells) [nM]	IC50 [1] [µM]	GI50 (KRAS G12D Ba/F3 cells) [nM]	GI50 (KRAS G12V Ba/F3 cells) [nM]	IC50 (KRAS (G12C)::SOS1) [nM]	IC50 [2] [µM]	solubility at 24 h [3, 4] [µg/mL]	solubility at 24 h [3, 5] [µg/mL]
C[C@H]1CNCCCN1c1nccc(-c2onc3c2CCC[C@@]32CCCc3sc(N)c(C#N)c32)n1 [If-1]	134	10.7	77	98	8	8.27		
C[C@H]1CNCCN1c1nccc(-c2noc3c2CCC[C@@]32CCCc3sc(N)c(C#N)c32)n1 [IIf-1]		2.86				1.38		
C[C@H](Oc1ccnc(-c2noc3c2CCC[C@@]32CCCc3sc(N)c(C#N)c32)n1)[C@@H]1CCCN1C [IIb-3]	23		16	25	3	4.96	> 117	> 120
C[C@H](Oc1nccc(-c2noc3c2CCC[C@@]32CCCc3sc(N)c(C#N)c32)n1)[C@@]1(C)CCCN1C [IIe-1]	254	6.38	155	203	8	4.53	> 115	> 114
C[C@H]1[C@@H]2CCCN2CCCN1c1nccc(-c2onc3c2CCC[C@@]32CCCc3sc(N)c(C#N)c32)n1 [Id-1]	42	9.46	27		3	3.99	> 117	> 108
C[C@@H]1NCCCN(c2nccc(-c3onc4c3CCC[C@@]43CCCc4sc(N)c(C#N)c43)n2)[C@H]1C [Ib-2]	126	8.35	101		14	1.09		
C[C@H]1CNCCCN1c1nccc(-c2noc3c2CCC[C@@]32CCCc3sc(N)c(C#N)c32)n1 (single isomer, unassigned) [IIb-5]	88	6.36	32		7	0.541	92 (≈ 193 µM)	51 (≈ 107 µM)
C[C@H]1CNCCCN1c1nccc(-c2noc3c2CSCC32CCCc3sc(N)c(C#N)c32)n1 (some centres unmarked) [IIb-4]	485	4.02	174	138	19	8.08		
CC1Cc2c(-c3ccnc(N4CCCNC[C@@H]4C)n3)noc2C2(CCCc3sc(N)c(C#N)c32)C1 (some centres unmarked) [IIb-1]	666	3.92	469	337	44	8.23	57 (≈ 116 µM)	32 (≈ 65.4 µM)
C[C@H]1CNCCCN1c1ncnc(-c2onc3c2CCC[C@@]32CCCc3sc(N)c(C#N)c32)n1 [Ib-4]	295	> 25	211		9	0.057	> 104	95 (≈ 199 µM)
C[C@H]1CNCCCN1c1nccc(-c2noc3c2CC(F)(F)CC32CCCc3sc(N)c(C#N)c32)n1 (some centres unmarked) [IIb-2]	507	4.85	798	478	39	2.96	53 (≈ 104 µM)	27 (≈ 52.8 µM)
C[C@H](Oc1nccc(-c2onc3c2CCC[C@@]32CCCc3sc(N)c(C#N)c32)n1)[C@@H]1C[C@@H]2C[C@@H]2N1C [Ih-1]	72	7.81	43	94	7	0.428	> 110	93 (≈ 185 µM)
C[C@H](Oc1nccc(-c2onc3c2CCC[C@@]32CCCc3sc(N)c(C#N)c32)n1)[C@@H]1C[C@@H]2C[C@@H]2N1 [If-2]	8510	> 25	4670		15	8.84	89 (≈ 182 µM)	< 1
CO[C@@H]1C[C@@H]([C@H](C)Oc2nccc(-c3onc4c3CCC[C@@]43CCCc4sc(N)c(C#N)c43)n2)N(C)C1 [Ie-1]	43	1.5	28	29	3	13.6		
CC(Oc1nccc(-c2onc3c2CCC[C@@]32CCCc3sc(N)c(C#N)c32)n1)C12CCCN1CCC2 (some centres unmarked) [Ie-5]	118	1.22	66	92	6	1.71		
